Several values for one entry are separate records, joined by “and”; a condition that tells them apart may be missing. Equal values may be shown once. Toxic doses and inconclusive results are not listed.
System: L1210 leukemia ip in BDF1 mice, survival T/C
Assay: NCI In Vivo Anticancer Drug Screen. Data for tumor model L1210 Leukemia (intraperitoneal) in B6D2F1 (BDF1) mice
Conditions: endpoint: mean survival time, higher = longer survival
Summary of the method: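 Tumor cells were implanted, animals were treated, and survival was followed. The result divides the treated measurement by the vehicle-control measurement.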

[1] = dose: 100.0 mg/kg/injection, schedule: Q01DX009 (ip), vehicle: saline with Tween-80
[2] = dose: 50.0 mg/kg/injection, schedule: Q01DX009 (ip), vehicle: Klucel (hydroxypropylcellulose) (HPC)
[3] = dose: 100.0 mg/kg/injection, schedule: Q01DX009 (ip), vehicle: Klucel (hydroxypropylcellulose) (HPC)
[4] = dose: 100.0 mg/kg/injection, schedule: Q04DX003 (ip), vehicle: Klucel (hydroxypropylcellulose) (HPC)
[5] = dose: 200.0 mg/kg/injection, schedule: Q01DX009 (ip), vehicle: Klucel (hydroxypropylcellulose) (HPC)
[6] = dose: 200.0 mg/kg/injection, schedule: Q04DX003 (ip), vehicle: Klucel (hydroxypropylcellulose) (HPC)
[7] = dose: 12.5 mg/kg/injection, schedule: Q01DX009 (ip), vehicle: Klucel (hydroxypropylcellulose) (HPC)
[8] = dose: 25.0 mg/kg/injection, schedule: Q01DX009 (ip), vehicle: Klucel (hydroxypropylcellulose) (HPC)
[9] = dose: 50.0 mg/kg/injection, schedule: Q01DX001 (ip), vehicle: carboxymethylcellulose (CMC)
[10] = dose: 100.0 mg/kg/injection, schedule: Q01DX001 (ip), vehicle: carboxymethylcellulose (CMC)
[11] = dose: 200.0 mg/kg/injection, schedule: Q01DX001 (ip), vehicle: carboxymethylcellulose (CMC)
[12] = dose: 400.0 mg/kg/injection, schedule: Q01DX001 (ip), vehicle: carboxymethylcellulose (CMC)

Compound: CCOc1ccc(NC(=O)NCCBr)cc1
- T/C (dose: 50.0 mg/kg/injection, schedule: Q01DX009 (ip), vehicle: saline with Tween-80): 94 % of control
- T/C [1]: 94 % of control

Compound: COc1ccccc1N1C(=O)C2C(C1=O)C1(Cl)C(Cl)=C(Cl)C2(Cl)C1(Cl)Cl (stereo unspecified)
- T/C [2]: 101 % of control
- T/C [3]: 95 % of control
- T/C [4]: 103 % of control
- T/C [5]: 101 % of control and 92 % of control
- T/C [6]: 109 % of control

Compound: S=C(NCN1CCNCC1)C(=S)NCN1CCNCC1
- T/C [7]: 97 % of control
- T/C [8]: 100 % of control
- T/C [2]: 93 % of control

Compound: COc1cccc(C2CCCCC2OS(=O)(=O)c2ccc(C)cc2)c1 (stereo unspecified)
- T/C (dose: 100.0 mg/kg/injection, schedule: Q01DX001 (ip), vehicle: steriod suspending solution): 106 % of control
- T/C (dose: 200.0 mg/kg/injection, schedule: Q01DX001 (ip), vehicle: steriod suspending solution): 101 % of control
- T/C (dose: 400.0 mg/kg/injection, schedule: Q01DX001 (ip), vehicle: steriod suspending solution): 91 % of control

Compound: C[C@]12CC[C@H]3[C@@H](CC[C@]4(O)C[C@@H](O)CC[C@]34C=O)[C@@]1(O)CC[C@@H]2C1=CC(=O)OC1
- T/C [7]: 102 % of control
- T/C [8]: 104 % of control
- T/C [9]: 98 % of control
- T/C [2]: 102 % of control
- T/C (dose: 50.0 mg/kg/injection, schedule: Q01DX009 (ip), vehicle: carboxymethylcellulose (CMC)): 103 % of control
- T/C (dose: 75.0 mg/kg/injection, schedule: Q04DX003 (ip), vehicle: Klucel (hydroxypropylcellulose) (HPC)): 102 % of control
- T/C [10]: 96 % of control
- T/C [3]: 109 % of control
- T/C (dose: 100.0 mg/kg/injection, schedule: Q01DX009 (ip), vehicle: carboxymethylcellulose (CMC)): 108 % of control
- T/C (dose: 150.0 mg/kg/injection, schedule: Q04DX003 (ip), vehicle: Klucel (hydroxypropylcellulose) (HPC)): 98 % of control
- T/C [11]: 93 % of control
- T/C [5]: 112 % of control
- T/C (dose: 300.0 mg/kg/injection, schedule: Q04DX003 (ip), vehicle: Klucel (hydroxypropylcellulose) (HPC)): 101 % of control

Compound: CCOC(=O)NCCCNC(=O)OCC
- T/C (dose: 100.0 mg/kg/injection, schedule: Q04DX003 (ip), vehicle: saline): 95 % of control
- T/C (dose: 200.0 mg/kg/injection, schedule: Q04DX003 (ip), vehicle: saline): 103 % of control
- T/C (dose: 400.0 mg/kg/injection, schedule: Q04DX003 (ip), vehicle: saline): 97 % of control

Compound: CCCCCCCCCCCC(=O)[O][Hg][c]1ccccc1
- T/C (dose: 75.0 mg/kg/injection, schedule: Q01DX001 (ip), vehicle: other): 91 % of control

Compound: COC(/C=N/O)c1ccccc1 (stereo unspecified)
- T/C (dose: 50.0 mg/kg/injection, schedule: Q01DX009 (ip), vehicle: other): 88 % of control
- T/C (dose: 100.0 mg/kg/injection, schedule: Q01DX009 (ip), vehicle: other): 88 % of control
- T/C (dose: 200.0 mg/kg/injection, schedule: Q01DX009 (ip), vehicle: other): 101 % of control

Compound: O=[N+]([O-])c1cccc(/C=N/Nc2nnc(N/N=C/c3cccc([N+](=O)[O-])c3)c3ccccc23)c1
- T/C [9]: 98 % of control
- T/C [10]: 98 % of control
- T/C [11]: 87 % of control
- T/C [12]: 93 % of control

Compound: CC(=O)OCC1OC(Oc2ccccc2)C(OC(C)=O)C(OC(C)=O)C1OC(C)=O (stereo unspecified)
- T/C (dose: 100.0 mg/kg/injection, schedule: Q01DX001 (ip), vehicle: saline with Tween-80): 101 % of control
- T/C [1]: 101 % of control
- T/C (dose: 200.0 mg/kg/injection, schedule: Q01DX001 (ip), vehicle: saline with Tween-80): 96 % of control
- T/C (dose: 200.0 mg/kg/injection, schedule: Q01DX009 (ip), vehicle: saline with Tween-80): 95 % of control
- T/C (dose: 400.0 mg/kg/injection, schedule: Q01DX001 (ip), vehicle: saline with Tween-80): 101 % of control
- T/C (dose: 400.0 mg/kg/injection, schedule: Q01DX009 (ip), vehicle: saline with Tween-80): 96 % of control

Compound: CC(=O)Oc1ccc(C=O)cc1
- T/C (dose: 50.0 mg/kg/injection, schedule: Q04DX003 (ip), vehicle: saline with Tween-80): 96 % of control
- T/C (dose: 100.0 mg/kg/injection, schedule: Q04DX003 (ip), vehicle: saline with Tween-80): 91 % of control
- T/C (dose: 200.0 mg/kg/injection, schedule: Q04DX003 (ip), vehicle: saline with Tween-80): 96 % of control

Compound: CC(C)(CBr)C(=O)Cl
- T/C (dose: 100.0 mg/kg/injection, schedule: Q01DX001 (ip), vehicle: saline): 101 % of control
- T/C (dose: 200.0 mg/kg/injection, schedule: Q01DX001 (ip), vehicle: saline): 106 % of control
- T/C (dose: 400.0 mg/kg/injection, schedule: Q01DX001 (ip), vehicle: saline): 101 % of control

Compound: Nc1nc(N)c2[nH]cnc2n1
- T/C (dose: 12.5 mg/kg/injection, schedule: Q01DX Z (ip), vehicle: carboxymethylcellulose (CMC)): 91 % of control
- T/C (dose: 17.49 mg/kg/injection, schedule: Q01DX Z (ip), vehicle: carboxymethylcellulose (CMC)): 86 % of control
- T/C [8]: 111 % of control
- T/C (dose: 25.0 mg/kg/injection, schedule: Q01DX Z (ip), vehicle: carboxymethylcellulose (CMC)): 93 % of control
- T/C (dose: 34.98 mg/kg/injection, schedule: Q01DX Z (ip), vehicle: carboxymethylcellulose (CMC)): 92 % of control
- T/C (dose: 44.0 mg/kg/injection, schedule: Q02DX010 (ip), vehicle: other): 100 % of control
- T/C [2]: 110 % of control
- T/C (dose: 66.0 mg/kg/injection, schedule: Q02DX010 (ip), vehicle: other): 105 % of control
- T/C (dose: 69.95 mg/kg/injection, schedule: Q01DX Z (ip), vehicle: carboxymethylcellulose (CMC)): 95 % of control
- T/C [10]: 97 % of control
- T/C (dose: 100.0 mg/kg/injection, schedule: Q01DX Z (ip), vehicle: carboxymethylcellulose (CMC)): 91 % of control
- T/C (dose: 100.0 mg/kg/injection, schedule: Q02DX010 (ip), vehicle: other): 116 % of control
- T/C (dose: 139.9 mg/kg/injection, schedule: Q01DX Z (ip), vehicle: carboxymethylcellulose (CMC)): 106 % of control
- T/C (dose: 150.0 mg/kg/injection, schedule: Q02DX010 (ip), vehicle: other): 117 % of control
- T/C [11]: 90 % of control
- T/C (dose: 225.0 mg/kg/injection, schedule: Q02DX010 (ip), vehicle: other): 60 % of control
- T/C [12]: 97 % of control

Compound: COC(=O)CCc1c[nH]c2ccc(N(CCCl)CCCl)cc12
- T/C (dose: 0.06 mg/kg/injection, schedule: Q01DX015 (ip), vehicle: carboxymethylcellulose (CMC)): 104 % of control
- T/C (dose: 0.13 mg/kg/injection, schedule: Q01DX015 (ip), vehicle: carboxymethylcellulose (CMC)): 105 % of control
- T/C (dose: 0.25 mg/kg/injection, schedule: Q01DX015 (ip), vehicle: carboxymethylcellulose (CMC)): 110 % of control
- T/C (dose: 0.5 mg/kg/injection, schedule: Q01DX015 (ip), vehicle: carboxymethylcellulose (CMC)): 120 % of control
- T/C (dose: 1.0 mg/kg/injection, schedule: Q01DX015 (ip), vehicle: carboxymethylcellulose (CMC)): 100 % of control
- T/C (dose: 1.9 mg/kg/injection, schedule: Q01DX009 (ip), vehicle: other): 118 % of control
- T/C (dose: 3.0 mg/kg/injection, schedule: Q01DX015 (ip), vehicle: carboxymethylcellulose (CMC)): 119 % of control
- T/C (dose: 3.8 mg/kg/injection, schedule: Q04DX003 (ip), vehicle: saline): 108 % of control
- T/C (dose: 7.5 mg/kg/injection, schedule: Q04DX003 (ip), vehicle: saline): 115 % of control
- T/C (dose: 15.0 mg/kg/injection, schedule: Q01DX009 (ip), vehicle: other): 123 % of control
- T/C (dose: 30.0 mg/kg/injection, schedule: Q04DX003 (ip), vehicle: saline): 177 % of control

Compound: Cc1[nH]nc2c(NO)ncnc12
- T/C (dose: 100.0 mg/kg/injection, schedule: Q01DX001 (ip), vehicle: other): 98 % of control
- T/C (dose: 200.0 mg/kg/injection, schedule: Q01DX001 (ip), vehicle: other): 98 % of control
- T/C (dose: 400.0 mg/kg/injection, schedule: Q01DX001 (ip), vehicle: other): 102 % of control

Compound: CCOc1ccccc1NC(=O)COc1ccc(Cl)cc1
- T/C [3]: 98 % of control
- T/C [4]: 90 % of control
- T/C [5]: 103 % of control
- T/C [6]: 101 % of control
- T/C (dose: 400.0 mg/kg/injection, schedule: Q01DX009 (ip), vehicle: Klucel (hydroxypropylcellulose) (HPC)): 97 % of control
- T/C (dose: 400.0 mg/kg/injection, schedule: Q04DX003 (ip), vehicle: Klucel (hydroxypropylcellulose) (HPC)): 108 % of control

Source: PubChem BioAssay AID248 (DTP/NCI, 2004)
